Data taken from publication PMC11520136, “Design, synthesis, and biological investigations of new pyrazole derivatives as VEGFR2/CDK-2 inhibitors targeting liver cancer” (BMC Chemistry, 2024).
“Also recorded” adds a separate entry of the source.

Assays:
THLE2 cells = test: MTT cytotoxicity assay against THLE2; assay type: cell-based; details: Homo sapiens, THLE-2, 48 h, normal liver cells, mean ± SD, n = 3
Procedure: (§1) The cell lines were supplemented with 10% fetal bovine serum (Sigma-Aldrich, MO, USA) and 1% penicillin–streptomycin. Compounds were added to the cells on the second day at doses of “0, 0.01, 0.1, 1, 10, and 100 μM”. Cell viability was assessed after 48 h using the MTT solution (Promega, USA).

HepG2 cells [1] = test: MTT cytotoxicity assay against HepG2; assay type: cell-based; details: mean ± SD, n = 3
Procedure: as §1

VEGFR2 kinase = target: T1, VEGFR2 kinase (Homo sapiens, UniProt P35968); test: VEGFR2 (KDR) kinase assay kit; assay type: biochemical; details: for IC50: average of three independent replicates
T1 construct: purchased BPS Bioscience 40,325

CDK-2 kinase = target: T2, CDK-2 kinase (Homo sapiens, UniProt P24941); test: CDK-2 luminescence kinase assay kit; assay type: biochemical; details: for IC50: average of three independent replicates
T2 construct: purchased Promega (so in the source) 79,599

HepG2 cells [2] = test: DNA content flow cytometry cell cycle analysis; assay type: cell-based; details: HepG2, IC50 values, 48 h; for DNA content %G2/M: control 20.6; for DNA content %S: control 37.59; for DNA content %G0-G1: control 41.81
Procedure: (§2) HepG2 cells (3–5 105 cells/well) were cultured onto 6-well culture plates and incubated overnight. […] The cells and medium supernatants were then washed with ice-cold PBS. After that, […] of annexin binding buffer solution was added to the cell suspension "25 mM CaCl2, 1.4 M NaCl, and 0.1 M Hepes/NaOH, pH 7.4″ and incubation with “Annexin V-FITC solution (1:100) and propidium iodide (PI)” at a concentration equals 10 µg/mL in the dark for 30 min. The Cytoflex FACS system was then used to acquire the stained cells. cytExpert was used for data analysis.
Kit used : ab139418_Propidium Iodide Flow Cytometry Kit/BD

HepG2 cells [3] = test: Annexin V/PI staining flow cytometry (apoptosis/necrosis); assay type: cell-based; set-up: Apoptosis Total / Apoptosis Early / Apoptosis Late: unit not given here; details: for total apoptosis (overall apoptotic cell death): untreated control 0.95%; for Apoptosis Late: Cont.HepG2 0.23; for Apoptosis Early: Cont.HepG2 0.72; for Apoptosis Total: Cont.HepG2 2.47
Procedure: as §2

HepG2 liver cancer cells = test system: HepG2 liver cancer cells; set-up: method as in PMID 32559576, PMID 37234266, doi:10.1016/j.molstruc.2023.135765; details: Fig. 1; read-out: IC50 against HepG2 liver cancer cells; cited from earlier work
[4] = HepG2, at the IC50 values, 48 h
[5] = HepG2, at the IC50 values, 48 h, untreated control 1.52%
[6] = supplement lab report, HepG2, Cont.HepG2 1.52

T1 sequence (P35968 20-1356): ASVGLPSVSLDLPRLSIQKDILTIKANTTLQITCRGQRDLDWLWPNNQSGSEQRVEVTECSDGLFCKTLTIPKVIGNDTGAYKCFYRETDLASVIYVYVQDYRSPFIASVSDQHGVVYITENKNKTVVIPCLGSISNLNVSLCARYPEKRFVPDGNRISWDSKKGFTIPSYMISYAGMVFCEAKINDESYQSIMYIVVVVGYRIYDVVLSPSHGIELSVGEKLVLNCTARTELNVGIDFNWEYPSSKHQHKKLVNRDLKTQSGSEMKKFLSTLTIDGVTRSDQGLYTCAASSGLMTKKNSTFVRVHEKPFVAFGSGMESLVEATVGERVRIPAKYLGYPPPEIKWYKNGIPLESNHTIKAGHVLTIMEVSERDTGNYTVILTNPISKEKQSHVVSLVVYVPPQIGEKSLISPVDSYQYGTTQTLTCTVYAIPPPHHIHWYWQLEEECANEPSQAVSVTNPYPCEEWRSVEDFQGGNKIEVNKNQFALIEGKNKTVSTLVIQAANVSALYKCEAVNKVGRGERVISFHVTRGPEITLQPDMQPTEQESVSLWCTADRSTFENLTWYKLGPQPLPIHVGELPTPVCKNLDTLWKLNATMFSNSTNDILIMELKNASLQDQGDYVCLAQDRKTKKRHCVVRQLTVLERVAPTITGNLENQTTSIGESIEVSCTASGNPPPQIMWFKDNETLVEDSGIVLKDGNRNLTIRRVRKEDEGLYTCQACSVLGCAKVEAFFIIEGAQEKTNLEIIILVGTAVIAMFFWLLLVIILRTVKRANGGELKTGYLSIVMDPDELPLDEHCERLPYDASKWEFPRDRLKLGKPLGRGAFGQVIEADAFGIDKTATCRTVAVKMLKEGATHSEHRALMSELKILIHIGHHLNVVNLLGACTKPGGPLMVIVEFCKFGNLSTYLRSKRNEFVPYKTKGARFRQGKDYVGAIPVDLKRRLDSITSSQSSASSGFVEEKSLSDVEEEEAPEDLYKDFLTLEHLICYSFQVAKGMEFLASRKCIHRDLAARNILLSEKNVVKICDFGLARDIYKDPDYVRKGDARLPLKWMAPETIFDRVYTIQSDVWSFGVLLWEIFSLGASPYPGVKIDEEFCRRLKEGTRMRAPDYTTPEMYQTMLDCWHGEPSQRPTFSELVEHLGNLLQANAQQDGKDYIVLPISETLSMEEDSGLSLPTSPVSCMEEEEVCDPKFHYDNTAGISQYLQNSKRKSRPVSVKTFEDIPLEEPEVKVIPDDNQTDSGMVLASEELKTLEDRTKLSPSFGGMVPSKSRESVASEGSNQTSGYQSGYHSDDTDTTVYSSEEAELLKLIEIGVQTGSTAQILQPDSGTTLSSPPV

SMILES: CC1=NN(C(c2ccccc2)N2CCOCC2)C(=O)C1N=Nc1ccccc1 (stereo not drawn) [Compound 3a, 5-Methyl-2-(morpholino(phenyl)methyl)-4-(phenyldiazenyl)-2,4-dihydro-3H-pyrazol-3-one]
- IC50 (THLE2 cells): 41.2 ± 1.19 µM
- IC50 (HepG2 cells [1]; Homo sapiens, HepG2, 48 h): 33.9 ± 1.89 µM

SMILES: CC1=NN(C(c2ccccc2)N2CCOCC2)C(=O)C1N=Nc1ccccc1[N+](=O)[O-] (stereo not drawn) [Compound 3b, 5-Methyl-2-(morpholino(phenyl)methyl)-4-((2-nitrophenyl)diazenyl)-2,4-dihydro-3H-pyrazol-3-one]
- IC50 (THLE2 cells): 47.2 ± 1.85 µM
- IC50 (HepG2 cells [1]; Homo sapiens, HepG2, 48 h): 55.5 ± 3.1 µM

SMILES: CC1=NN(C(c2ccccc2)N2CCOCC2)C(=O)C1N=Nc1ccc(Cl)cc1 (stereo not drawn) [Compound 3c, 4-((4-Chlorophenyl)diazenyl)-5-methyl-2-(morpholino(phenyl)methyl)-2,4-dihydro-3H-pyrazol-3-one]
- IC50 (THLE2 cells): 34.5 ± 2.1 µM

SMILES: CC1=NN(C(c2ccccc2)N2CCCCC2)C(=O)C1N=Nc1ccccc1 (stereo not drawn) [Compound 4a, 5-Methyl-2-(phenyl(piperidin-1-yl)methyl)-4-(phenyldiazenyl)-2,4-dihydro-3H -pyrazol-3-one]
- inhibition at 10 µM (VEGFR2 kinase): 90.5 ± 2.1%
- IC50 (VEGFR2 kinase): 0.55 ± 0.006 µM
- IC50 (THLE2 cells): 27.3 ± 1.15 µM
- inhibition at 10 µM (CDK-2 kinase): 90.9 ± 1.9%
- IC50 (CDK-2 kinase): 0.205 ± 0.011 µM
- IC50 (HepG2 cells [1]; 48 h): 4.43 ± 0.25 µM
- IC50 (HepG2 cells [1]; Homo sapiens, HepG2, 48 h): 4.4 µM

SMILES: CC1=NN(C(c2ccccc2)N2CCCCC2)C(=O)C1N=Nc1ccccc1[N+](=O)[O-] (stereo not drawn) [Compound 4b, 5-Methyl-4-((2-nitrophenyl)diazenyl)-2-(phenyl(piperidin-1-yl)methyl)-2,4-dihydro-3H-pyrazol-3-one]
- IC50 (THLE2 cells): 72.4 ± 2.15 µM
- IC50 (HepG2 cells [1]; 48 h): 9.34 ± 0.52 µM
- IC50 (HepG2 cells [1]; Homo sapiens, HepG2, 48 h): 9.33 µM

SMILES: CC1=NN(C(c2ccccc2)N2CCCCC2)C(=O)C1N=Nc1ccc(Cl)cc1 (stereo not drawn) [Compound 4c, 4-((4-Chlorophenyl)diazenyl)-5-methyl-2-(phenyl(piperidin-1-yl)methyl)-2,4-dihydro-3H-pyrazol-3-one]
- IC50 (THLE2 cells): 34.7 ± 1.05 µM
- IC50 (HepG2 cells [1]; Homo sapiens, HepG2, 48 h): 25.2 ± 1.41 µM

SMILES: Cc1nn(C(Nc2ccccc2)c2ccccc2)c(O)c1N=Nc1ccccc1 (stereo not drawn) [Compound 5a, 3-Methyl-1-(phenyl(phenylamino)methyl)-4-(phenyldiazenyl)-1H-pyrazol-5-ol]
- inhibition at 10 µM (VEGFR2 kinase): 91.7 ± 3.1%
- IC50 (VEGFR2 kinase): 0.267 ± 0.001 µM
- DNA content %G2/M (HepG2 cells [2]): 15.61%
- DNA content %S (HepG2 cells [2]): 35.21%
- DNA content %G0-G1 (HepG2 cells [2]): 49.18%
- cell cycle phase of growth arrest (Comment) (HepG2 cells [2]; listed as s20): cell growth arrest@ G1
- IC50 (THLE2 cells): 48.7 ± 2.05 µM
- inhibition at 10 µM (CDK-2 kinase): 91 ± 2.1%
- IC50 (CDK-2 kinase): 0.311 ± 0.011 µM
- total apoptosis (overall apoptotic cell death) (HepG2 cells [3]; [4]): 38.32%
- necrosis (HepG2 cells [3]; [5]): 4.63%
- Apoptosis Late (HepG2 cells [3]; supplement lab report, HepG2): 11.55
- Apoptosis Early (HepG2 cells [3]; supplement lab report, HepG2): 26.77
- necrosis (HepG2 cells [3]; [6]): 4.63
- Apoptosis Total (HepG2 cells [3]; supplement lab report, HepG2): 42.95
- IC50 (HepG2 cells [1]; Homo sapiens, HepG2, 48 h): 3.46 ± 0.16 µM

SMILES: Cc1nn(C(Nc2ccccc2[N+](=O)[O-])c2ccccc2)c(O)c1N=Nc1ccccc1 (stereo not drawn) [Compound 5b, 3-Methyl-1-((2-nitrophenylamino)(phenyl)methyl)-4-(phenyldiazenyl)-1H-pyrazol-5-ol]
- IC50 (THLE2 cells): 65.2 ± 2.3 µM
- IC50 (HepG2 cells [1]; 48 h): 17.3 ± 0.8 µM
- IC50 (HepG2 cells [1]; Homo sapiens, HepG2, 48 h): 17.1 µM

SMILES: Cc1nn(C(Nc2c(C)n(C)n(-c3ccccc3)c2=O)c2ccccc2)c(O)c1N=Nc1ccccc1 (stereo not drawn) [Compound 6a, 4-(((5-Hydroxy-3-methyl-4-(phenyldiazenyl)-1H-pyrazol-1-yl)(phenyl)methyl)amino)-1,5-dimethyl-2-phenyl-1,2-dihydro-3H-pyrazol-3-one]
- IC50 (THLE2 cells): 75.3 ± 3.3 µM

SMILES: Cc1nn(C(Nc2c(C)n(C)n(-c3ccccc3)c2=O)c2ccccc2)c(O)c1N=Nc1ccccc1[N+](=O)[O-] (stereo not drawn) [Compound 6b, 4-(((5-Hydroxy-3-methyl-4-((2-nitrophenyl)diazenyl)-1H-pyrazol-1-yl)(phenyl)methyl)amino)-1,5-dimethyl-2-phenyl-1,2-dihydro-3H-pyrazol-3-one]
- inhibition at 10 µM (VEGFR2 kinase): 93.2 ± 2.9%
- IC50 (VEGFR2 kinase): 0.2 ± 0.001 µM
- cell cycle phase of growth arrest (Comment) (HepG2 cells [2]): S-phases; also recorded: S phase
- DNA content %G2/M (HepG2 cells [2]): 12.49%
- DNA content %S (HepG2 cells [2]): 41.33%
- DNA content %G0-G1 (HepG2 cells [2]): 46.18%
- cell cycle phase of growth arrest (Comment) (HepG2 cells [2]; listed as s31): cell growth arrest@ G1/S
- IC50 (THLE2 cells): 60.2 ± 2.54 µM
- inhibition at 10 µM (CDK-2 kinase): 88.7 ± 2.6%
- IC50 (CDK-2 kinase): 0.458 ± 0.017 µM
- total apoptosis (overall apoptotic cell death) (HepG2 cells [3]; [4]): 42.9%
- necrosis (HepG2 cells [3]; [5]): 7.54%
- Apoptosis Late (HepG2 cells [3]; supplement lab report, HepG2): 14.48
- Apoptosis Early (HepG2 cells [3]; supplement lab report, HepG2): 29.17
- necrosis (HepG2 cells [3]; [6]): 7.54
- Apoptosis Total (HepG2 cells [3]; supplement lab report, HepG2): 51.19
- IC50 (HepG2 cells [1]; Homo sapiens, HepG2, 48 h): 2.52 ± 0.12 µM

SMILES: COc1ccc(OC)c(NC(=O)c2cc(-c3c[nH]c4ccccc34)n[nH]2)c1 [SI]
- IC50 (HepG2 liver cancer cells): 0.6 µM

SMILES: CNC(=O)c1cc(Oc2ccc(NC(=O)Nc3ccc(Cl)c(C(F)(F)F)c3)cc2)ccn1 [Sorafenib, reference compound]
- IC50 (THLE2 cells): 17 ± 0.72 µM

SMILES: COc1cccc2c1C(=O)c1c(O)c3c(c(O)c1C2=O)C[C@@](O)(C(=O)CO)C[C@@H]3O[C@H]1C[C@H](N)[C@H](O)[C@H](C)O1 [doxorubicin, reference compound]
- IC50 (HepG2 cells [1]; Homo sapiens, HepG2, 48 h): 2.05 µM
